According to article PMC6199744, “Development of Chemical Proteomics for the Folateome and Analysis of the Kinetoplastid Folateome” (ACS Infectious Diseases, 2018):
Like-named read-outs stand apart in the source and are kept apart here.

Legend:
Assay type in all cases: binding
[1] = molecular target: T1, HeLa cell extract proteins (Homo sapiens, UniProt P53597)
T1 construct: endogenous in cells; host or cells: HeLa cell extract

[2] = molecular target: T2, HeLa cell extract proteins (Homo sapiens, UniProt P31939)
T2 construct: endogenous in cells; host or cells: HeLa cell extract

[3] = molecular target: T3, HeLa cell extract proteins (Homo sapiens, UniProt Q6L8Q7)
T3 construct: endogenous in cells; host or cells: HeLa cell extract
T3 sequence (Q6L8Q7 43-609): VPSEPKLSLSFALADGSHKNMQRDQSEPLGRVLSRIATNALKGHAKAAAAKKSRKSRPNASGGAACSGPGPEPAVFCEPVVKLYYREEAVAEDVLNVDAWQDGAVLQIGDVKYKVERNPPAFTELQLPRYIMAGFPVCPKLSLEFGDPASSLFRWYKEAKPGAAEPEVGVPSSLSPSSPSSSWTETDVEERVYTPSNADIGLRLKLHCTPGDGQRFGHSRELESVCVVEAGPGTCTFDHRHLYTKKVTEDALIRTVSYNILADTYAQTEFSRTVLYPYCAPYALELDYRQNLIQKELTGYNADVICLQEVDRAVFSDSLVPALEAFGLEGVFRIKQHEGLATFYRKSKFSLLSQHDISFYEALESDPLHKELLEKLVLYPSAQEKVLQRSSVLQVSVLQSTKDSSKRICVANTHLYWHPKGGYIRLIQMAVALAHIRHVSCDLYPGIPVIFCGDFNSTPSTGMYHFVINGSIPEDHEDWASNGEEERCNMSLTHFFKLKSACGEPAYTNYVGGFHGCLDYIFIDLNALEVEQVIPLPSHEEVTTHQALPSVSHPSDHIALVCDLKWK

[4] = molecular target: T4, HeLa cell extract proteins (Homo sapiens, UniProt O75489); conditions: HeLa; protein NDUFS3
T4 construct: endogenous in cells; host or cells: HeLa cell extract

[5] = molecular target: T5, HeLa cell extract proteins (Homo sapiens, UniProt Q06323); conditions: HeLa; protein PSME1
T5 construct: endogenous in cells; host or cells: HeLa cell extract

[6] = molecular target: T6, HeLa cell extract proteins (Homo sapiens, UniProt Q13510); conditions: HeLa; protein ASAH1
T6 construct: endogenous in cells; host or cells: HeLa cell extract
T6 sequence (Q13510 22-395): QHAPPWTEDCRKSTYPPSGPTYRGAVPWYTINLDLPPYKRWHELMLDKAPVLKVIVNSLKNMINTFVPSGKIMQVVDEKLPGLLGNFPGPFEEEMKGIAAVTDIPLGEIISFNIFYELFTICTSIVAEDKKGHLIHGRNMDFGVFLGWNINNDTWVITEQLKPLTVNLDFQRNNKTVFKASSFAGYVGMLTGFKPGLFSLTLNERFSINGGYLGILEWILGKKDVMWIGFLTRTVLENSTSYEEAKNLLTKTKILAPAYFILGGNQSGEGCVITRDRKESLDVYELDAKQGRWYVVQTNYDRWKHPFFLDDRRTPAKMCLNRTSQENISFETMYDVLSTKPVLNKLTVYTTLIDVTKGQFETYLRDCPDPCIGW

[7] = molecular target: T7, HeLa cell extract proteins (Homo sapiens, UniProt Q9UBB4); conditions: protein Ataxin-10; HeLa
T7 construct: endogenous in cells; host or cells: HeLa cell extract
T7 sequence (Q9UBB4 1-475): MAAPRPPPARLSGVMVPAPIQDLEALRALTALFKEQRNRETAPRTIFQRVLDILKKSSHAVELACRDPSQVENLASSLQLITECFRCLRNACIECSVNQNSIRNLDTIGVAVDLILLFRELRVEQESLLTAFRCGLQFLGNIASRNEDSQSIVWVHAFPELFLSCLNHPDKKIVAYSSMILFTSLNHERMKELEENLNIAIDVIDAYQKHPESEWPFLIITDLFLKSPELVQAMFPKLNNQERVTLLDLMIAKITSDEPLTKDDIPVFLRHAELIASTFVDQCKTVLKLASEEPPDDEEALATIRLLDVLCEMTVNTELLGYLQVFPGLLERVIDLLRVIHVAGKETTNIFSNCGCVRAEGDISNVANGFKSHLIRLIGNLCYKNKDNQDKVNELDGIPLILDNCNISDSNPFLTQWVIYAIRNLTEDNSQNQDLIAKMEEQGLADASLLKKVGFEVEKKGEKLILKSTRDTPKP

[8] = molecular target: T8, HeLa cell extract proteins (Homo sapiens, UniProt Q05639); conditions: protein EEF1A2; HeLa
T8 construct: endogenous in cells; host or cells: HeLa cell extract
T8 sequence (Q05639 1-463): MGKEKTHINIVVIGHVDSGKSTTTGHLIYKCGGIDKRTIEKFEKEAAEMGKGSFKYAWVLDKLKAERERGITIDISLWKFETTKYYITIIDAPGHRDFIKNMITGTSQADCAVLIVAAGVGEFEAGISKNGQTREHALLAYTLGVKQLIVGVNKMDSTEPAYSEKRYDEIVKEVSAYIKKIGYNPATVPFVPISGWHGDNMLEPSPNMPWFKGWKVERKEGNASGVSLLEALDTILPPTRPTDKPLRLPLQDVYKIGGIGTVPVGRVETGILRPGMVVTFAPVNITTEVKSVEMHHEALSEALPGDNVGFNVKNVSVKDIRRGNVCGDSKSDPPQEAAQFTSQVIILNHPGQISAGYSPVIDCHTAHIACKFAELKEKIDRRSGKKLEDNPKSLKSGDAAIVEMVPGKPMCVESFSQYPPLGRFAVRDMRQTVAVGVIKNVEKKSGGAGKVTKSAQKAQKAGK

T4 sequence (O75489 37-264): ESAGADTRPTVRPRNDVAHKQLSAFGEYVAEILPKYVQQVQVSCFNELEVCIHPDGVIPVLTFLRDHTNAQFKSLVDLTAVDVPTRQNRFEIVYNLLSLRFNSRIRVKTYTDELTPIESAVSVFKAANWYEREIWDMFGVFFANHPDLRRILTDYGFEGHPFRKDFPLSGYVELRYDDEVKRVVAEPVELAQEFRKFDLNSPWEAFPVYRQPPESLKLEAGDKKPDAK
T5 sequence (Q06323 whole entry): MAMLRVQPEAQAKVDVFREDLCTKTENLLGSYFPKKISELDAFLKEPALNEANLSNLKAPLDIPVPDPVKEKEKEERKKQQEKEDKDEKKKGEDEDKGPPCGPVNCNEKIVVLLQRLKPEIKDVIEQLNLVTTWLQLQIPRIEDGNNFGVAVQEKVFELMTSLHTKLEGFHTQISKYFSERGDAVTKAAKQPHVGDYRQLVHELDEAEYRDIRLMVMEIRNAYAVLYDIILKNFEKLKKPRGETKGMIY
T2 sequence (P31939 whole entry): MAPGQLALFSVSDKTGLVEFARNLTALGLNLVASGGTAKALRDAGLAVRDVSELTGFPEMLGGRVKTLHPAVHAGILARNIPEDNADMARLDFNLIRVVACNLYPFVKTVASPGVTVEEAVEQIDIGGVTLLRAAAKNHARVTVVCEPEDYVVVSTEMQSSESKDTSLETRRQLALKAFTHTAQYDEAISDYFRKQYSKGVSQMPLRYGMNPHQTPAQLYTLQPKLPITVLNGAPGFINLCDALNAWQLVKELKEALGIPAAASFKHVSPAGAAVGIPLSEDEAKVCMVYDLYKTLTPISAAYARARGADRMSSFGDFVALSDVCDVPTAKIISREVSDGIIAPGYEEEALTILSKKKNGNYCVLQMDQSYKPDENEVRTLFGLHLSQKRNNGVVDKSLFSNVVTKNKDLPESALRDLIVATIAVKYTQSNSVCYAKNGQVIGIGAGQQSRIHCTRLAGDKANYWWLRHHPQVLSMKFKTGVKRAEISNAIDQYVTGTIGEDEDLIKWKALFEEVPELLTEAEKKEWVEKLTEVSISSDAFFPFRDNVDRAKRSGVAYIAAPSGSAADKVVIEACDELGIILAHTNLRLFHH
T1 sequence (P53597 41-346): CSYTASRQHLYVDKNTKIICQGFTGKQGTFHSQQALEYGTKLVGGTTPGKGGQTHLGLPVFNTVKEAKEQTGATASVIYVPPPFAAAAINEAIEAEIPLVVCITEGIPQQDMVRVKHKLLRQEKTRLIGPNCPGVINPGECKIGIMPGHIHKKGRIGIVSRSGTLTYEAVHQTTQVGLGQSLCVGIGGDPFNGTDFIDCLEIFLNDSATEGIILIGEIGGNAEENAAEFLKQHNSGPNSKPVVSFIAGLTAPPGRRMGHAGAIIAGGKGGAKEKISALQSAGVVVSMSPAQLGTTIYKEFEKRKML

SMILES | fold changes relative to vehicle control ([1]; protein SUCLG1, HeLa) | fold changes relative to vehicle control ([2]; HeLa, protein ATIC) | fold changes relative to vehicle control ([3]; HeLa, protein PDE12) | fold changes relative to vehicle control [1] | fold changes relative to vehicle control [2] | fold changes relative to vehicle control [3] | fold changes relative to vehicle control [4] | fold changes relative to vehicle control [5] | fold changes relative to vehicle control [6] | fold changes relative to vehicle control [7] | fold changes relative to vehicle control [8]
Nc1nc2c(c(=O)[nH]1)N(C=O)C(CNc1ccc(C(=O)N[C@@H](CCC(=O)O)C(=O)O)cc1)CN2 (stereo partly drawn) [LEU, leucovorin] | 0.95 | 1.06 | 0.93 |  |  |  |  |  |  |  | 
Nc1nc2[nH]cc(CCc3ccc(C(=O)N[C@@H](CCC(=O)O)C(=O)O)cc3)c2c(=O)[nH]1 [PTX, pemetrexed] |  |  |  | 1.09 | 0.91 | 1.04 |  |  |  |  | 
CCCCCCOc1ccc(Cc2cnc(N)nc2N)cc1 [compound 1] |  |  |  |  |  |  | 1.05 | 0.97 | 0.97 | 1.14 | 1.09
CCCCCCOc1cccc(Cc2cnc(N)nc2N)c1 [compound 2] |  |  |  |  |  |  | 1.19 | 1.35 | 0.71 | 1.4 | 2.29
Nc1nc2cccc(-c3ccccc3)c2n1Cc1ccc(Cl)c(Cl)c1 [compound 3] |  |  |  |  |  |  | 0.86 | 1.04 | 0.89 | 1.04 | 0.82
NCCOCCOCC(=O)Nc1nc2ncc(CNc3ccc(C(=O)NC(CCC(=O)O)C(=O)O)cc3)nc2c(=O)[nH]1 (stereo not drawn) [compound 6] | 1.3 | 1.13 | 1.1 |  |  |  |  |  |  |  | 
NCCCNc1ccc(C(=O)NC(CCC(=O)O)C(=O)O)cc1 (stereo not drawn) [compound 7] | 0.81 | 0.99 | 1.34 |  |  |  |  |  |  |  | 
